Experimental data published in patent US11976280B2, “SMAC/Diablo inhibitors useful for treating cancer” (THE NATIONAL INSTITUTE FOR BIOTECHNOLOGY IN THE NEGEV LTD., priority 2017, dated 2024).
d = 2'-deoxy (DNA); r = 2'-OH (RNA)

Legend:
[1] = tested on: A549 lung cancer xenografts; assay: Histology and IHC of residual tumor morphology (H&E, SP-C, podoplanin, CD31, α-SMA); assay type: in vivo, mice
Procedure: Tissue microarrays (MC5003, LC807) containing cancer and normal tissues purchased from US Biomax (US Biomax, Inc. USA) and formalin-fixed and paraffin-embedded tumor sections were immunohistochemistry (IHC) stained. Sections were deparaffinized using xylene and a graded ethanol series. Endogenous peroxidase activity was blocked by incubating the sections in 3% H2O2 for 10 minutes. Antigen retrieval was performed in 0.01M citrate buffer (pH 6.0) in 95° C.-98° C. for 20 minutes. After washing sections with PBS containing 0.1% Triton-X100 (pH 7.4), non-specific antibody binding was reduced by incubating the sections in 10% normal goat serum for 2 hr. After decanting excess serum, sections were incubated overnight at 4° C. with primary antibodies (sources and dilutions are detailed in Supplementary Table 1). Sections were washed with PBST. For IHC, endogenous peroxidase activity was blocked by incubating the sections in 3% H2O2 for […]. After washing thoroughly with PBST, the sections were incubated for 2 h with anti-mouse or anti rabbit (1:250) secondary antibodies conjugated to HRP, as appropriate. Sections were washed five times in PBST and the peroxidase reaction was subsequently visualized by incubating with 3,3-diaminobenzidine (DAB) (ImmPact-DAB, Burlingame, CA). After rinsing in water, the sections were counterstained with hematoxylin, and mounted with Vectashield mounting medium (Vector Laboratories, Burigame, CA). Finally, the sections were observed under a microscope (Leica DM2500) and images were collected at 20× magnification with the same light intensity and exposure time.
These features can be interpreted as indicative of the cancer cells in si-hSMAC-A-TTs having undergone a differentiation process. To investigate this point, we analyzed the expression of the pulmonary-associated surfactant protein c (SP-C) ([…]), a component of the surface-active lipoprotein complex that is required for proper biophysical function of the lung, and found in alveolar epithelial type II (AT2) cells (Barkauskas, C. E. et al., 2013. J Clin Invest 123, 3025-3036). […] The expression of the AT1 cells marker podoplanin (also known as T1α, PDPN), a membranal mucin-type sialoglycoprotein (Barkauskas et al., ibid), was also assessed (FIG. 4D, 4E). […] (FIG. 4F) Photomicrograph of si-hSMAC-A-treated tumor stained with toluidine blue. Arrows indicate glandular-like clusters surrounded by a chain of cells.
In contrast, in si-NT-TTs, the CD31-positive cells were flattened and randomly dispersed over the entire area of the tumor tissue (FIG. 7G). The results of the histological analysis could reflect a scenario whereby si-NT-TTs CD31-positive cells are involved in the process of tumor angiogenesis, while in si-hSMAC-A-TTs, the cellular organization more closely resembles the normal physiological alveolar endothelial arrangement designed for 02 exchange. A schematic presentation of a cross-section through alveoli is offered for comparison with the glandular/alveolar-like structures observed in the si-hSMAC-A-TTs (compare FIGS. 7H and 7I).
Further support for this view comes from analysis of the formation of stroma in H&E-stained si-NT-TTs and si-hSMAC-A-TTs (FIG. 8).
The sub-cellular localization of SMAC/Diablo in si-NT-TTs was further analyzed by immunofluorescence staining using anti-Cyto c antibodies as mitochondria markers and confocal microscopy (data not shown). It was found SMAC/Diablo and Cyto c were co-localized in si-NT-TTs. Here too, SMAC/Diablo was found in addition to mitochondria also in the nuclei.

[2] = tested on: MDA-MB-231 cell xenografts; assay: MDA-MB-231 breast cancer xenograft in nude mice; assay type: in vivo; conditions: 700 nM
Procedure: FIGS. 5A-5G depict that si-hSMAC-A inhibited cell growth in vitro and tumor growth of breast cancer xenografts: (FIG. A) MDA-MB-231 cells were transfected with si-NT (50 nM) or si-hSMAC-A (100 nM) and analyzed for cell growth at the indicated time using the SRB method (n=3) (Control (●), si-NT (◯), si-hSMAC-A (▴); (FIG. 5B) MDA-MB-231 cells were transfected with si-NT or si-hSMAC-A and at the indicated time cells were harvested and analyzed for SMAC/Diablo levels by immunoblotting. (3-actin was used as a loading control; (FIG. 5C) MDA-MB-231 cells (3×10^6 cells/mouse) were inoculated into nude mice. Tumor volumes were monitored (using a digital caliper) and on day 18, the mice were divided into two groups (n=8 each) with each mouse in the group containing a tumor with a volume between 60 and 100 mm^3 and similar average volumes measured per group. The two mice groups were subjected to the following treatments: Xenografts were injected with si-NT (●, 350 nM) or si-hSMAC-A (▴, 700 nM). (FIG. 5D) Represents photomicrograph of dissected tumors from mouse MDA-MB-231 cell xenografts treated with si-NT or si-hSMAC-A; (FIG. 5E) Bar-graph represents dissected tumors weight from MDA-MB-231 cell xenografts; calculated average tumor volumes are presented as means±SEM, ***P<0.001 (FIG. 5F, FIG. 5G) Dissected tumors were subjected to immunohistochemistry. […]

si-hSMAC-A: siRNA to human SMAC/Diablo; sense 5′AAGCGGUGUUUCUCAGAAUUGtt3′ (SEQ ID NO:20), antisense 5′AACAAUUCUGAGAAACCCGCtt3′ (SEQ ID NO:21) (sense AAGCGGUGUUUCUCAGAAUUGTT; antisense AACAAUUCUGAGAAACCCGCTT; sense: sugars from the 5' end r21 d2, backbone not given here; antisense: sugars from the 5' end r20 d2, backbone not given here)
SMAC/Diablo by immunofluorescence in tumors ([1]; mouse, in vivo): no SMAC/Diablo was detected | expression of AT1 marker podoplanin ([1]; mouse, in vivo): higher expression levels | organization of CD31-positive cells ([1]; mouse, in vivo): organized in a manner resembling lung alveoli | staining for α-SMA ([1]; mouse, in vivo): significantly reduced | stromal structures, H&E ([1]; mouse, in vivo): massive fibrotic structures, resembling scar tissue | tumor cell organization, H&E ([1]; mouse, in vivo): organized in glandular-like clusters, surrounded by a chain of cells | vascular formations in stromal structures ([1]; mouse, in vivo): barely noticeable | staining of SP-C ([1]; vs si-NT-TTs): No significant differences | staining with Sirius red and of vimentin ([1]; vs si-NT-TTs): appeared to be similar | tumor growth of breast cancer xenografts [2]: inhibited
